# Measurements taken from patent US4753984A (priority 1985, dated 1988).
# Columns and labels:
# [1] = Localization of radiolabelled Daunorubicin drugs in organs of 3 LL tumor-bearing mice; settings: i.v. 100 micrograms Daunorubicin equivalent, 48 or 72 hours after injection
# Method: The radiolabelled Daunorubicin drugs (14-^14 C) are injected intravenously 14 days after implantation of 10^5 3 LL cells. Either 100 micrograms of free Daunorubicin (5×10^5 cpm), or 100 micrograms of Daunorubicin in macromolecular form (5×10^5 cpm) is injected. Localization is measured after the intravenous injection of various products.
# The mice are sacrificed by cervical elongation 48 hours or 72 hours after injection. The organs are removed, dissolved by a tissue solubilizing agent (NCS Amersham) at a rate of 200 mg to 300 mg of organ/ml of solubilizing agent, then counted in a liquid scintillant. […] The results are recapitulated in FIG. 3.
# [2] = system: 3 LL cells; test: In vivo antitumor activity on mice implanted with 3 LL cells (tumor growth and survival); parameters: species or system C 57 BL/6 male mice; settings: for inhibition of tumor growth relative to the control lot: Daunorubicin 7x10 micrograms, polymer 8x200 microgram equivalents of Daunorubicin (i.v. days 2, 6, 10, i.p. days 14-30), FIG. 4
# Method: The in vivo antitumor activity of the macromolecular drugs is evaluated on C 57 BL/6 male mice aged a total of about 10 weeks. 10^5 3 LL cells are implanted in each mouse by intramuscular injection of 100 microliters of a cellular suspension of 10^6 cells/ml in the right posterior paw.
# One lot of 10 mice, serving as a control, is injected with 7×100 microliters of physiologic serum.
# One lot of 10 mice is treated with 7×10 micrograms of free Daunorubicin (dosage limited due to the toxicity of the free drug).
# After intramuscular injection of the tumoral cells, the macromolecular prodrug is injected intravenously at days 2, 6 and 10, then intraperitoneally at days 14, 18, 22, 26 and 30.
# Two parameters are recorded to evaluate the in vivo antitumoral activity: the inhibition of tumor growth and animal survival.
# [3] = comparison value, source not given; cited from earlier work
# [4] = target: chymotrypsin (Bos taurus, UniProt P00766); test: Proteolyse in vitro: chymotrypsic hydrolyse, liberated daunorubicin derivative analysed by thin layer chromatography; type: biochemical; settings: Tris-HCl buffer 0.05 M, CaCl2 10 mM, pH 8.0; TLC analysis
# Method: The chymotrypsic hydrolyse is effected in a Tris-HCl buffer 0.05 M, CaCl2 10 mM at pH=8.0.
# On analysis, the derivatives of the daunorubicin are liberated after enzymatic hydrolysis, by thin layer chromatography.
# [5] = target: T1, trypsin (Bos taurus, UniProt P00760); test: Proteolyse in vitro: trypsic hydrolysis, liberated daunorubicin derivative analysed by thin layer chromatography; type: biochemical; settings: 0.1M sodium bicarbonate, CaCl2 10 mM, pH 8.7; TLC analysis
# T1 construct: gene PRSS1
# T1 sequence (P00760 24-246): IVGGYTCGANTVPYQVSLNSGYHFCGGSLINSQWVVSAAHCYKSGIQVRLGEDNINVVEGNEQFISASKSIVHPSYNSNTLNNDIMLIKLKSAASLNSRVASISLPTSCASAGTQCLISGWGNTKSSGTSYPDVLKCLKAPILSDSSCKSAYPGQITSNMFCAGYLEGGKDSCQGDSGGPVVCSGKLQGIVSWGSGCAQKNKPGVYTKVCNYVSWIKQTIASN
# Method: On analysis, the derivatives of the daunorubicin are liberated after enzymatic hydrolysis, by thin layer chromatography. For example:
# Trypsic hydrolysis is carried out in a 0.1M solution of sodium bicarbonate, CaCl2, 10 mM at pH, 8.7.
Molecule,spleen mass / atrophy [1],inhibition of tumor growth relative to the control lot [2],derivative of daunorubicin liberated after chymotrypsic hydrolysis [4],other results
COc1cccc2c1C(=O)c1c(O)c3c(c(O)c1C2=O)C[C@@](O)(C(C)=O)C[C@@H]3O[C@H]1C[C@H](N)[C@H](O)[C@H](C)O1 [Daunorubicin],severe atrophy of the spleen,does not influence in a significant manner tumoral growth,–,radioactivity of the spleen [1]: significant accumulation of the radioactivity
COc1cccc2c1C(=O)c1c(O)c3c(c(O)c1C2=O)C[C@@](O)(C(=O)CO)C[C@@H]3O[C@H]1C[C@H](N)[C@H](O)[C@H](C)O1 [adriamycin],–,–,–,time to disappear from plasma [3]: 20 min
"polycarboxylated linear polymer of 2-N-acryloylamino-2-hydroxymethyl-1,3-propanediol substituted by the -Gly-Gly-L-Tyr-Daunorubicin sequence [Example 1]",–,–,frees the daunorubicin,–
"polycarboxylated linear polymer of 2-N-acryloylamino-2-hydroxymethyl-1,3-propanediol substituted by the -Gly-Gly-L-Tyr-L-Leu-Daunorubicin sequence [Example 2]",mass comparable to that of the healthy animals,significant inhibition of tumor growth,liberates leucyl-daunorubicin,"T/C (survival of the animals treated relative to the control animals) ([2]; 8x200 microgram equivalents of Daunorubicin, FIG. 5): 145"
"polycarboxylated linear polymer of 2-N-acryloylamino-2-hydroxymethyl-1,3-propanediol substituted by the Gly-L-Phe-L-Ala-L-Leu-Daunorubicin sequence [Example 3]",–,–,frees alaninyl-leucyl-daunorubicin,–
"polycarboxylated linear polymer of 2-N-acryloylamino-2-hydroxymethyl-1,3-propanediol substituted by the Gly-L-Pro-L-Arg-L-Leu-Daunorubicin sequence [Example 6]",–,–,–,derivative of daunorubicin liberated after trypsic hydrolysis [5]: freeing leucyl-daunorubicin
